According to the supplement of paper PMC13380429:

Key:
[1] = test system: A549-ACE2 infected with SARS-CoV-2; experiment: cell count relative to DMSO; higher = less toxic; conditions: 24 h
A549-ACE2 = experiment: drug-induced phospholipidosis relative to tamoxifen; higher = more phospholipidosis
HepG2 [2] = experiment: cell viability relative to DMSO; higher = less toxic; conditions: 72 h
U2OS [3] = experiment: as above; conditions: 72 h
Vero E6 [4] = experiment: as above; conditions: 72 h
Calu-3 [5] = experiment: as above; conditions: 72 h
Caco-2 [6] = experiment: as above; conditions: 72 h
HepG2 [7] = experiment: drug sensitivity score (DSS) for viability; higher = more toxic; extreme values may be limits of the assay; conditions: 72 h
U2OS [8] = experiment: as above; conditions: 72 h
Vero E6 [9] = experiment: as above; conditions: 72 h
Calu-3 [10] = experiment: as above; conditions: 72 h
Caco-2 [11] = experiment: as above; conditions: 72 h
[12] = test system: A549-ACE2 infected with SARS-CoV-2; experiment: morphology score (similarity to uninfected cells); higher = more like uninfected cells; conditions: 24 h
HepG2 [13] = experiment: relative viability EC50 (midpoint between 100% and the lowest measured viability); higher = less toxic; conditions: 72 h
U2OS [14] = experiment: as above; conditions: 72 h
Vero E6 [15] = experiment: as above; conditions: 72 h
Calu-3 [16] = experiment: as above; conditions: 72 h
Caco-2 [17] = experiment: as above; conditions: 72 h
[18] = test system: A549-ACE2 infected with SARS-CoV-2; experiment: SARS-CoV-2 infection rate relative to DMSO; higher = more infection; conditions: 24 h

CNC(=O)c1cc(Oc2ccc(NC(=O)Nc3cc(C(C)(C)C)nn3-c3ccc4ncccc4c3)c(F)c2)ccn1 [rebastinib]
Conditions	SARS-CoV-2 infection rate, [18] [%]	cell count, [1] [%]	cell viability, Caco-2 [6] [%]	cell viability, Calu-3 [5] [%]	cell viability, HepG2 [2] [%]	cell viability, U2OS [3] [%]	cell viability, Vero E6 [4] [%]	morphology score, [12]
1 nM	–	–	98.4	100	104	97.9	98.2	–
10 nM	–	–	89.9	97.5	102	96.4	96.8	–
0.1 µM	97	104	–	–	–	–	–	0.31
100 nM	–	–	95.4	105	108	97	102	–
0.3 µM	92	103	–	–	–	–	–	0.24
1 µM	92	102	–	–	–	–	–	0.22
1000 nM	–	–	114	90.8	28.6	108	112	–
3 µM	95	96	–	–	–	–	–	0.12
10000 nM	–	–	30	42.6	6.1	9.6	9.9	–

drug-induced phospholipidosis [%], A549-ACE2
Conditions	0.3 µM	0.833333 µM	3.33333 µM	6.66667 µM	10 µM
24 h	-0.9	-2.36	-1.54	-1.91	-2.66
48 h	-0.69	-2.5	-1.43	-0.4	0.77
72 h	0.586	-3.51	-2.2	1.53	5.87

Conditions	drug sensitivity score	relative viability EC50 [µM]
Caco-2 [11]	3.1	–
Caco-2 [17]	–	3.94
Calu-3 [10]	4.6	–
Calu-3 [16]	–	1.94
HepG2 [7]	13.3	–
HepG2 [13]	–	0.638
U2OS [8]	4.4	–
U2OS [14]	–	3.62
Vero E6 [9]	4.3	–
Vero E6 [15]	–	3.74

O=C(CCCN1CCC2(CC1)C(=O)NCN2c1ccccc1)c1ccc(F)cc1 [spiperone]
Conditions	SARS-CoV-2 infection rate, [18] [%]	cell count, [1] [%]	cell viability, Caco-2 [6] [%]	cell viability, Calu-3 [5] [%]	cell viability, HepG2 [2] [%]	cell viability, U2OS [3] [%]	cell viability, Vero E6 [4] [%]	morphology score, [12]
1 nM	–	–	99.3	105	91.6	100	99.8	–
10 nM	–	–	92.7	84.1	108	96.6	103	–
100 nM	–	–	96.2	108	98.7	101	96.1	–
0.3 µM	102	99	–	–	–	–	–	-0.22
1000 nM	–	–	99.3	103	91.1	98.5	95.8	–
3 µM	86	114	–	–	–	–	–	0.32
10 µM	31	97	–	–	–	–	–	0.19
10000 nM	–	–	71.9	74.1	62.5	94.6	98.3	–
30 µM	35	77	–	–	–	–	–	0.03

drug-induced phospholipidosis [%], A549-ACE2
Conditions	0.3 µM	0.833333 µM	3.33333 µM	6.66667 µM	10 µM	30 µM
24 h	-1.11	-1.19	0.56	7.38	19.1	21
48 h	1.78	-0.92	2.83	6.18	13.4	–
72 h	1.57	-0.0916	2.59	6.4	14.9	–

Conditions	drug sensitivity score	relative viability EC50 [µM]
Caco-2 [11]	1.3	–
Calu-3 [10]	0.8	–
HepG2 [7]	3.2	–
U2OS [8]	0	–
U2OS [14]	–	> 10
Vero E6 [9]	0	–
Vero E6 [15]	–	> 10

CCN(CC)C(=S)S [ditiocarb-sodium-trihydrate]
Conditions	SARS-CoV-2 infection rate, [18] [%]	cell count, [1] [%]	cell viability, Caco-2 [6] [%]	cell viability, Calu-3 [5] [%]	cell viability, HepG2 [2] [%]	cell viability, U2OS [3] [%]	cell viability, Vero E6 [4] [%]	morphology score, [12]
1 nM	–	–	94.1	105	97.5	101	92.8	–
10 nM	–	–	97	93.1	97.9	98.9	102	–
100 nM	–	–	89.3	108	100	101	96.3	–
0.3 µM	108	97	–	–	–	–	–	-0.22
1000 nM	–	–	89.2	89	108	101	103	–
3 µM	98	102	–	–	–	–	–	0.08
10 µM	95	107	–	–	–	–	–	0.19
10000 nM	–	–	16.7	70.2	35.6	85.5	99	–
30 µM	62	106	–	–	–	–	–	0.61

drug-induced phospholipidosis [%], A549-ACE2
Conditions	0.3 µM	0.833333 µM	3.33333 µM	6.66667 µM	10 µM
24 h	0.51	1.07	-2.14	-0.7	-0.24
48 h	2.4	1.02	0.85	0.97	0.53
72 h	3.87	-0.805	0.971	1.39	0.827

Conditions	drug sensitivity score	relative viability EC50 [µM]
Caco-2 [11]	6.4	–
Caco-2 [17]	–	2.11
Calu-3 [10]	2.8	–
HepG2 [7]	3	–
HepG2 [13]	–	3.73
U2OS [8]	0.2	–
U2OS [14]	–	> 10
Vero E6 [9]	0	–
Vero E6 [15]	–	> 10

Clc1cc(Cl)c(OCC#CI)cc1Cl [haloprogin]
Conditions	SARS-CoV-2 infection rate, [18] [%]	cell count, [1] [%]	cell viability, Caco-2 [6] [%]	cell viability, Calu-3 [5] [%]	cell viability, HepG2 [2] [%]	cell viability, U2OS [3] [%]	cell viability, Vero E6 [4] [%]	morphology score, [12]
1 nM	–	–	109	84	91.8	95.6	95.3	–
10 nM	–	–	90.2	88.5	104	95.2	96.9	–
100 nM	–	–	95.1	99.9	116	97.5	90.6	–
0.3 µM	97	100	–	–	–	–	–	0.18
1000 nM	–	–	130	95.9	91	95.2	101	–
3 µM	83	100	–	–	–	–	–	0.44
10 µM	71	79	–	–	–	–	–	0.28
10000 nM	–	–	97	110	59.5	47.1	93.9	–
30 µM	15	15	–	–	–	–	–	0.1

drug-induced phospholipidosis [%], A549-ACE2
Conditions	0.3 µM	0.833333 µM	3.33333 µM	6.66667 µM	10 µM
24 h	4.53	2.7	5.33	17.8	23.3
48 h	-1.51	-0.64	1.31	14.4	7.74
72 h	5.04	-1.02	-0.916	2.19	-6.87

Conditions	drug sensitivity score	relative viability EC50 [µM]
Caco-2 [11]	0	–
Caco-2 [17]	–	> 10
Calu-3 [10]	0	–
Calu-3 [16]	–	> 10
HepG2 [7]	3.4	–
U2OS [8]	3.6	–
U2OS [14]	–	2.42
Vero E6 [9]	0	–
Vero E6 [15]	–	> 10
